These results are taken from patent US20180022780A1, “STABILIZATION ADRENOMEDULLIN DERIVATIVES AND USE THEREOF” (priority 2014, published 2018).

The structures appear in SMILES notation. Bridge positions count the residues as written; N and C are the ends. Square brackets hold non-standard residues; d marks the D form. Peptide text beside a SMILES is read from it. * marks the point of attachment. Palmitoyl = CCCCCCCCCCCCCCCC(=O)*; Orn = NCCC[C@H](N)C(=O)O; Dab = NCC[C@H](N)C(=O)O

This assay deals with T1, CLR fused to EYFP and RAMP2 fused to ECFP (Homo sapiens, UniProt O60895+Q16602).
T1 construct: EYFP; ECFP; expressed in transfected cells; host or cells: HEK-293 cells, transient co-transfection
T1 sequence (Q16602 23-461): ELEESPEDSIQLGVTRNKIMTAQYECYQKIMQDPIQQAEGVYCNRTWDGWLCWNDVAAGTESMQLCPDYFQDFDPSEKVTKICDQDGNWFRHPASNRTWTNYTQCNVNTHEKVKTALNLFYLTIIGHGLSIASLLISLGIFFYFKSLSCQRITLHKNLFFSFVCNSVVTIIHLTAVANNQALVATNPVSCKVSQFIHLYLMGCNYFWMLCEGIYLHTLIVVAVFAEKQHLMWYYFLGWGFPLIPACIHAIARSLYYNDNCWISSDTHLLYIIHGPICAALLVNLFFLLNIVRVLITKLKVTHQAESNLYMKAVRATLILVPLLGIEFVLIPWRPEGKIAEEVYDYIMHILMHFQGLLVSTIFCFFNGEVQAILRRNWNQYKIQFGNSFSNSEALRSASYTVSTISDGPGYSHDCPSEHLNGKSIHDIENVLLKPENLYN
T1 sequence (O60895 43-175): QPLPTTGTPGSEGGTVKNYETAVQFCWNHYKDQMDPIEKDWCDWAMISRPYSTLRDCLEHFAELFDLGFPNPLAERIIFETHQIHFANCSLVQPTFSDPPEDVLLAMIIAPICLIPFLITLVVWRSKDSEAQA
Nature of the assay: cAMP assay (CRE luciferase reporter, HEK-293 cells transiently co-transfected with CLR and RAMP2). The format is cell-based. The settings on record: Table 2, cAMP assay; HEK-293, CLR/RAMP2, CRE luciferase, 3 h stimulation, normalized to [G^14]ADM(14-52). The procedure: HEK-293 cells (human embryonic kidney cells) were cultured in Ham's F-12/DMEM (1/1; v/v) containing 15% FCS under humidified atmosphere at 37° C. and 5% CO2 in 75 cm^2 cell culture flasks.
Cells were cultured in 75 cm^2 flasks to 70-80% confluency. 45 μl Metafectene® Pro was diluted in 900 μl Ham's F-12/DMEM (1/1; v/v) and incubated for 20 min at room temperature. 9000 ng plasmid containing DNA of CLR fused to EYFP and 3000 ng plasmid containing DNA of RAMP2 fused to ECFP were dissolved in 900 μl Ham's F-12/DMEM (1/1; v/v). The plasmid solution was mixed with the Metafectene® Pro solution and incubated for 25 min at room temperature. Medium was removed from the cells and replaced by 6 ml Ham's F-12/DMEM (1/1; v/v) containing 15% FCS. After addition of transfection solution the cells were incubated for 3 h under humidified atmosphere at 37° C. and 5% CO2.
For the second transfection 45 μl Metafectene® Pro was diluted in 900 μl Ham's F-12/DMEM (1/1; v/v) and incubated for 20 min at room temperature. 12000 ng of pGL4.29[luc2P/CRE/Hygro] plasmid containing DNA for the luciferase reporter gene luc2P (with CRE promotor region) were dissolved in 900 μl Ham's F-12/DMEM (1/1; v/v). The plasmid solution was mixed with the Metafectene® Pro solution and incubated for 25 min at room temperature. Medium was removed from the cells and replaced by 6 ml Ham's F-12/DMEM (1/1; v/v) containing 15% FCS. After addition of transfection solution the cells were incubated under humidified atmosphere at 37° C. and 5% CO2 over night.
For the coating of 96-well-plates 50 μl of a Poly-D-Lysine solution (1 ml stock solution of Poly-D-Lysin-hydrobromid/10 ml DPBS) were pipetted in each well and incubated for 40 min. After removal of the Poly-D-Lysine each well was washed with 50 μl DPBS. Transiently transfected cells were detached from the cell culture flask by removal of the medium, twofold washing with 5 m1 DPBS and resuspending in 13 ml Ham's F-12/DMEM (1/1; v/v) containing 15% FCS. 90000 to 120000 cells in 150 μl Ham's F-12/DMEM (1/1; v/v) containing 15% FCS were seeded per well and the plates were incubated under humidified atmosphere at 37° C. and 5% CO2 over night.
For each ligand a serial dilution giving eight different concentrations was prepared using Ham's F-12/DMEM (1/1; v/v). Before stimulation the medium on the cells was replaced by 100 μl Ham's F-12/DMEM (1/1; v/v) and the plates were incubated for 1 h under humidified atmosphere at 37° C. and 5% CO2. For stimulation the medium was removed again and the cells were incubated for 3 h in 80 μl of ligand-solution under humidified atmosphere at 37° C. and 5% CO2. In addition 80 μl of a 5 μM forskolin solution (in Ham's F-12/DMEM (1/1; v/v)) was used as a positive control and 80 μl of Ham's F-12/DMEM (1/1; v/v) as a negative control. Each concentration and the controls were tested as triplicates.
After 3 h of stimulation, the solutions were removed and the cells were washed with 50 μl of Ham's F-12/DMEM (1/1; v/v) per well. After 10 min incubation in 30 μl of Ham's F-12/DMEM (1/1; v/v) at room temperature, 30 μl of luciferase-solution (ONE-Glo™ Luciferase Assay System) was added and the luminescence was directly measured using an Infinite M200 (Tecan).
Data analysis of the luminescence measurement was carried out with GraphPad Prism 5. Therefore the measured luminescence values of each plate were first corrected on the base of the respective average of forskolin stimulation. Afterwards they were normalized to [G^14]ADM(14-52) which was used as standard peptide in every assay. After correction and normalization data was analysed using non-linear regression giving dose-response curves for each tested ligand.
In turn, `CC[C@H](C)[C@H](NC(=O)[C@H](CCC(N)=O)NC(=O)[C@H](Cc1c[nH]cn1)NC(=O)[C@H](C)NC(=O)[C@H](CC(C)C)NC(=O)[C@H](CCCCN)NC(=O)[C@H](CCC(N)=O)NC(=O)[C@@H](NC(=O)[C@@H](NC(=O)[C@@H]1CCCNC(=O)C[C@H](NC(=O)CNC(=O)CN)C(=O)N[C@@H](CCCNC(=N)N)C(=O)N[C@@H](Cc2ccccc2)C(=O)NCC(=O)N[C@@H]([C@@H](C)O)C(=O)N1)[C@@H](C)O)C(C)C)C(=O)N[C@@H](Cc1ccc(O)cc1)C(=O)N[C@@H](CCC(N)=O)C(=O)N[C@@H](Cc1ccccc1)C(=O)N[C@H](C(=O)N[C@@H](CC(=O)O)C(=O)N[C@@H](CCCCN)C(=O)N[C@@H](CC(=O)O)C(=O)N[C@@H](CCCCN)C(=O)N[C@@H](CC(=O)O)C(=O)N[C@@H](CC(N)=O)C(=O)N[C@H](C(=O)N[C@@H](C)C(=O)N1CCC[C@H]1C(=O)N[C@@H](CCCNC(=N)N)C(=O)N[C@@H](CO)C(=O)N[C@@H](CCCCN)C(=O)N[C@H](C(=O)N[C@@H](CO)C(=O)N1CCC[C@H]1C(=O)N[C@@H](CCC(N)=O)C(=O)NCC(=O)N[C@@H](Cc1ccc(O)cc1)C(N)=O)[C@@H](C)CC)C(C)C)[C@@H](C)O` [Example 8, ((2S,5S,11S,14S,21S)-21-(2-(2-aminoacetamido)acetamido)-5-benzyl-2-(3-guanidinopropyl)-11-((R)-1-hydroxyethyl)-3,6,9,12,19,22-hexaoxo-1,4,7,10,13,18-hexaazacyclodocosane-14-carbonyl)-L-threonyl-ADM(22-52)] (H-GGDRFGT[Orn]TVQKLAHQIYQFTDKDKDNVAPRSKISPQGY-NH2; lactam 3-8) registered a half-maximal effective concentration (EC50) of 20 nM.

In turn, `CC[C@H](C)[C@H](NC(=O)[C@H](CCC(N)=O)NC(=O)[C@H](Cc1c[nH]cn1)NC(=O)[C@H](C)NC(=O)[C@H](CC(C)C)NC(=O)[C@H](CCCCN)NC(=O)[C@H](CCC(N)=O)NC(=O)[C@@H](NC(=O)[C@@H](NC(=O)[C@@H]1CCNC(=O)CC[C@H](NC(=O)CNC(=O)CN)C(=O)N[C@@H](CCCNC(=N)N)C(=O)N[C@@H](Cc2ccccc2)C(=O)NCC(=O)N[C@@H]([C@@H](C)O)C(=O)N1)[C@@H](C)O)C(C)C)C(=O)N[C@@H](Cc1ccc(O)cc1)C(=O)N[C@@H](CCC(N)=O)C(=O)N[C@@H](Cc1ccccc1)C(=O)N[C@H](C(=O)N[C@@H](CC(=O)O)C(=O)N[C@@H](CCCCN)C(=O)N[C@@H](CC(=O)O)C(=O)N[C@@H](CCCCN)C(=O)N[C@@H](CC(=O)O)C(=O)N[C@@H](CC(N)=O)C(=O)N[C@H](C(=O)N[C@@H](C)C(=O)N1CCC[C@H]1C(=O)N[C@@H](CCCNC(=N)N)C(=O)N[C@@H](CO)C(=O)N[C@@H](CCCCN)C(=O)N[C@H](C(=O)N[C@@H](CO)C(=O)N1CCC[C@H]1C(=O)N[C@@H](CCC(N)=O)C(=O)NCC(=O)N[C@@H](Cc1ccc(O)cc1)C(N)=O)[C@@H](C)CC)C(C)C)[C@@H](C)O` [Example 10, ((2S,5S,11S,14S,21S)-21-(2-(2-aminoacetamido)acetamido)-5-benzyl-2-(3-guanidinopropyl)-11-((R)-1-hydroxyethyl)-3,6,9,12,18,22-hexaoxo-1,4,7,10,13,17-hexaazacyclodocosane-14-carbonyl)-L-threonyl-ADM(22-52)] (H-GGERFGT[Dab]TVQKLAHQIYQFTDKDKDNVAPRSKISPQGY-NH2; lactam 3-8) came in with an EC50 of 41 nM.

`CC[C@H](C)[C@H](NC(=O)[C@H](CCC(N)=O)NC(=O)[C@H](Cc1c[nH]cn1)NC(=O)[C@H](C)NC(=O)[C@H](CC(C)C)NC(=O)[C@H](CCCCN)NC(=O)[C@H](CCC(N)=O)NC(=O)[C@@H](NC(=O)[C@@H](NC(=O)[C@@H]1CCC(=O)NCC[C@H](NC(=O)CNC(=O)CN)C(=O)N[C@@H](CCCNC(=N)N)C(=O)N[C@@H](Cc2ccccc2)C(=O)NCC(=O)N[C@@H]([C@@H](C)O)C(=O)N1)[C@@H](C)O)C(C)C)C(=O)N[C@@H](Cc1ccc(O)cc1)C(=O)N[C@@H](CCC(N)=O)C(=O)N[C@@H](Cc1ccccc1)C(=O)N[C@H](C(=O)N[C@@H](CC(=O)O)C(=O)N[C@@H](CCCCN)C(=O)N[C@@H](CC(=O)O)C(=O)N[C@@H](CCCCN)C(=O)N[C@@H](CC(=O)O)C(=O)N[C@@H](CC(N)=O)C(=O)N[C@H](C(=O)N[C@@H](C)C(=O)N1CCC[C@H]1C(=O)N[C@@H](CCCNC(=N)N)C(=O)N[C@@H](CO)C(=O)N[C@@H](CCCCN)C(=O)N[C@H](C(=O)N[C@@H](CO)C(=O)N1CCC[C@H]1C(=O)N[C@@H](CCC(N)=O)C(=O)NCC(=O)N[C@@H](Cc1ccc(O)cc1)C(N)=O)[C@@H](C)CC)C(C)C)[C@@H](C)O` [Example 11, ((2S,5S,11S,14S,21S)-21-(2-(2-aminoacetamido)acetamido)-5-benzyl-2-(3-guanidinopropyl)-11-((R)-1-hydroxyethyl)-3,6,9,12,17,22-hexaoxo-1,4,7,10,13,18-hexaazacyclodocosane-14-carbonyl)-L-threonyl-ADM(22-52)] (H-GG[Dab]RFGTETVQKLAHQIYQFTDKDKDNVAPRSKISPQGY-NH2; lactam 3-8) yielded an EC50 of 84 nM.

On to `CCCCCCCCCCCCCCCC(=O)NCCCC[C@H](N)C(=O)NCC(=O)N[C@H]1CCC(=O)NCCCC[C@@H](C(=O)N[C@H](C(=O)N[C@H](C(=O)N[C@@H](CCC(N)=O)C(=O)N[C@@H](CCCCN)C(=O)N[C@@H](CC(C)C)C(=O)N[C@@H](C)C(=O)N[C@@H](Cc2c[nH]cn2)C(=O)N[C@@H](CCC(N)=O)C(=O)N[C@H](C(=O)N[C@@H](Cc2ccc(O)cc2)C(=O)N[C@@H](CCC(N)=O)C(=O)N[C@@H](Cc2ccccc2)C(=O)N[C@H](C(=O)N[C@@H](CC(=O)O)C(=O)N[C@@H](CCCCN)C(=O)N[C@@H](CC(=O)O)C(=O)N[C@@H](CCCCN)C(=O)N[C@@H](CC(=O)O)C(=O)N[C@@H](CC(N)=O)C(=O)N[C@H](C(=O)N[C@@H](C)C(=O)N2CCC[C@H]2C(=O)N[C@@H](CCCNC(=N)N)C(=O)N[C@@H](CO)C(=O)N[C@@H](CCCCN)C(=O)N[C@H](C(=O)N[C@@H](CO)C(=O)N2CCC[C@H]2C(=O)N[C@@H](CCC(N)=O)C(=O)NCC(=O)N[C@@H](Cc2ccc(O)cc2)C(N)=O)[C@@H](C)CC)C(C)C)[C@@H](C)O)[C@@H](C)CC)C(C)C)[C@@H](C)O)NC(=O)[C@H]([C@@H](C)O)NC(=O)CNC(=O)[C@H](Cc2ccccc2)NC(=O)[C@H](CCCNC(=N)N)NC1=O` [Example 12, ((2S,5S,11S,14S,23S)-23-(2-((S)-2-amino-6-palmitamidohexanamido)acetamido)-5-benzyl-2-(3-guanidinopropyl)-11-((R)-1-hydroxyethyl)-3,6,9,12,20,24-hexaoxo-1,4,7,10,13,19-hexaazacyclotetracosane-14-carbonyl)-L-threonyl-ADM(22-52)] (H-K(Palmitoyl)GERFGTKTVQKLAHQIYQFTDKDKDNVAPRSKISPQGY-NH2; lactam 3-8), for which the concentration for a half-maximal effect (EC50) is 29 nM.
